# In patent US8455397B2, “Penoxsulam as a turfgrass, vineyard and orchard floor herbicide” (Dow AgroSciences, LLC, priority 2005, dated 2013):
# Key:
# [1] = system: buckhorn plantain (PLALA); assay: Postemergent granule herbicides, turfgrass field studies; assay type: in vivo, Plantago lanceolata L.; conditions: Table I, 3 sites, Penoxsulam 140 gai/Ha, Scotts Plus 2 1682+841 gae/Ha, Trimec 1121+516+112 gae/Ha
# Description: (§1) Field studies were conducted in established turfgrass sites containing a natural population of target broadleaf weeds. Replicated trials, containing a minimum of three replications and having individual plots ranging in size from 25 to 50 ft. sq (2.3 to 4.6 square meters), were initiated in the late spring when turf and weeds were actively growing. Granule treatments were uniformly applied to individual plots using a common hand-shaker method. Applications were made in the early morning when dew was present. Natural rainfall and supplemental irrigation were used to maintain healthy turf and active weed growth throughout the study period. Control of each weed species in the study site was made at 2, 4 and 8 weeks after treatment. Control was determined visually by comparing treated and untreated weeds and scored on a 0 to 100 percent scale where 0 corresponds to no control and 100 corresponds to complete kill.
# dandelion (TAROF) = assay: as above; assay type: in vivo, Taraxacum officinale
# Description: as §1
# [2] = system: Virginia buttonweed (DIQVI); assay: as above; assay type: in vivo, Diodia virginiana L.; conditions: Table III, 1 site
# Description: as §1
# [3] = system: broadleaf plantain (PLAMA); assay: Granule carrier/particle size, post emergence greenhouse study; assay type: in vivo, Plantago major L.; conditions: postemergent greenhouse
# Description: (§2) Greenhouse and field studies evaluated the effect of two granule carriers and two particles sizes on the postemergent broadleaf activity of penoxsulam. The two carriers were a 46-0-0 and 28-4-12 fertilizer blend and the particle sizes averaged 0.75 mm and 2.15 mm.
# Greenhouse studies were applied both post and pre-emergence to broadleaf weeds and sedge reared from seed or nutlet in 12.7″ (32.25 cm) by 8.8″ (22.35 cm) flats of a loam soil. Particle size and carrier were evaluated post emergence, carrier comparisons with the smaller particle size of 0.75 was evaluated pre-emergence. Stage of growth of species at post emergence application: PLAMA and TAROF in the 3 to 5 leaf stage, TRFRE in the 3rd tri-foliate stage and CYPES in the 3 to 4 leaf stage. Post emergence trial design was a replicated block, one species per flat, 3 replicate flats per treatment. Granule treatments were uniformly applied to individual flats on an area basis using a common hand-shaker method. Post emergence applications were made to the flat covering both soil and misted foliage. Trial was sub-irrigated daily, and watered over the top 1 time per week starting 7 days after application to simulate a natural rainfall event. Active weed growth was maintained throughout the study period. Weed control of each species in the post emergence study was assessed at 2, 3 and 4 weeks after treatment. Pre-emergence trial design was 2 species per flat, 4 replicate flats, block design. Pre-emergence applications were made to the soil surface using a common hand shaker method on an area basis. Overhead irrigation was maintained throughout the trial. Weed control of each species in the pre-emergence study was assessed at 2, 3, 4 and 5 weeks after application. Control was determined visually by comparing treated and untreated flats and scored on a 0 to 100 percent scale where 0 corresponds to no control and 100 corresponds to complete kill.
# [4] = system: pennywort (dollarweed) (HYDSS); assay: Granule carrier/particle size, postemergent field study; assay type: in vivo, Hydrocotyle spp
# Description: as §2, §1
# redstem filaree (EROCI) = assay: Pre-emergence orchard floor weeds, greenhouse study; assay type: in vivo, Erodivam cicutarium; conditions: 28 Days After Application
# Description: Greenhouse studies were conducted by seeding species in a loam soil and applying the herbicides to the soil surface using a Cornwall 5 milliliter glass syringe fitted with a TeeJet TN-3 nozzle on an area basis Immediately following herbicide application the pots were irrigated over the top to move the herbicides into the seeding zone. Pots were kept well irrigated throughout the trial. A percent visual weed control assessment was taken 4 weeks after application. Control was determined visually by comparing treated and untreated pots and scored on a 0 to 100 percent scale where 0 corresponds to no control and 100 corresponds to complete kill, or no emergence.
# common purslane (POROL) = assay: Pre-emergence weed nursery field study; assay type: in vivo, Portulaca oleracea; conditions: weed nursery in the field, 27 Days After Application
# Description: (§3) Field studies were conducted in a non-fumigated weed nursery trial. Weed species were planted in single strips with a row planter at 36 centimeter spacing. Plot size was 3.05×9.2 meters, 4 replicate plots per treatment. Weed species were seeded at appropriate depths and later the same day pre-emergent applications were made to the soil surface. Liquid applications were made using a backpack sprayer calibrated to deliver 187 liters per hectare (L/ha). Applications were made in Fresno, Calif. in June. Sprinkler irrigation was applied at regular intervals throughout study period. Control of each weed species in the study site was made 4 weeks after treatment. Control was determined visually by comparing treated and untreated weeds and scored on a 0 to 100 percent scale where 0 corresponds to no control and 100 corresponds to complete kill or no emergence.
# barnyardgrass (ECHCG) = assay: Pre-emergence weed nursery field study; assay type: in vivo, Echinochloa crus-galli; conditions: weed nursery in the field, 27 Days After Application
# Description: as §3
# [5] = carrier 28-4-12, particle size 0.75 mm, 11.2 gai/Ha
# [6] = carrier 28-4-12, particle size 0.75 mm, 22.4 gai/Ha
# [7] = carrier 28-4-12, particle size 2.15 mm, 11.2 gai/Ha
# [8] = carrier 28-4-12, particle size 2.15 mm, 22.4 gai/Ha
# [9] = carrier 46-0-0, particle size 0.75 mm, 11.2 gai/Ha
# [10] = carrier 46-0-0, particle size 0.75 mm, 22.4 gai/Ha
# [11] = carrier 46-0-0, particle size 2.15 mm, 11.2 gai/Ha
# [12] = carrier 46-0-0, particle size 2.15 mm, 22.4 gai/Ha
smiles,measurement,setting,value
"COc1cnc(OC)n2nc(NS(=O)(=O)c3c(OCC(F)F)cccc3C(F)(F)F)nc12 [Penoxsulam, 2-(2,2-difluoroethoxy)-N-(5,8-dimethoxy[1,2,4]triazolo[1,5-c]-pyrimidin-2-yl)-6-(trifluoromethyl)benzenesulfonamide]",Mean Percent Weed Control,[1]; 4 Weeks After Treatment,53%
same,Mean Percent Weed Control,[1]; 8 Weeks After Treatment,62%
same,Mean Percent Weed Control,"dandelion (TAROF); Table I, 4 Weeks After Treatment, 5 sites, Penoxsulam 140 gai/Ha, Scotts Plus 2 1682+841 gae/Ha, Trimec 1121+516+112 gae/Ha",93%
same,Mean Percent Weed Control,"dandelion (TAROF); Table I, 8 Weeks After Treatment, 5 sites, Penoxsulam 140 gai/Ha, Scotts Plus 2 1682+841 gae/Ha, Trimec 1121+516+112 gae/Ha",87%
same,Mean Percent Weed Control,"dandelion (TAROF); Table III, 4 Weeks After Treatment, 22.4 gai/Ha, 6 sites",45%
same,Mean Percent Weed Control,"dandelion (TAROF); Table III, 4 Weeks After Treatment, 44.9 gai/Ha, 6 sites",61%
same,Mean Percent Weed Control,"dandelion (TAROF); Table III, 4 Weeks After Treatment, 67.3 gai/Ha, 6 sites",61%
same,Mean Percent Weed Control,"dandelion (TAROF); Table III, 4 Weeks After Treatment, 100 gai/Ha, 6 sites",69%
same,Mean Percent Weed Control,"dandelion (TAROF); Table III, 8 Weeks After Treatment, 22.4 gai/Ha, 6 sites",25%
same,Mean Percent Weed Control,"dandelion (TAROF); Table III, 8 Weeks After Treatment, 44.9 gai/Ha, 6 sites",45%
same,Mean Percent Weed Control,"dandelion (TAROF); Table III, 8 Weeks After Treatment, 67.3 gai/Ha, 6 sites",47%
same,Mean Percent Weed Control,"dandelion (TAROF); Table III, 8 Weeks After Treatment, 100 gai/Ha, 6 sites",57%
same,Mean Percent Weed Control,"[2]; 4 Weeks After Treatment, 22.4 gai/Ha",67%
same,Mean Percent Weed Control,"[2]; 4 Weeks After Treatment, 44.9 gai/Ha",76%
same,Mean Percent Weed Control,"[2]; 4 Weeks After Treatment, 67.3 gai/Ha",93%
same,Mean Percent Weed Control,"[2]; 4 Weeks After Treatment, 100 gai/Ha",92%
same,Mean Percent Weed Control,"[2]; 8 Weeks After Treatment, 22.4 gai/Ha",48%
same,Mean Percent Weed Control,"[2]; 8 Weeks After Treatment, 44.9 gai/Ha",63%
same,Mean Percent Weed Control,"[2]; 8 Weeks After Treatment, 67.3 gai/Ha",87%
same,Mean Percent Weed Control,"[2]; 8 Weeks After Treatment, 100 gai/Ha",78%
same,Percent Weed Control 27-30 DAA,"[3]; carrier 28-4-12, particle size 0.75 mm, 5.6 gai/Ha",35%
same,Percent Weed Control 27-30 DAA,[3]; [5],75%
same,Percent Weed Control 27-30 DAA,[3]; [6],96%
same,Percent Weed Control 27-30 DAA,"[3]; carrier 28-4-12, particle size 2.15 mm, 5.6 gai/Ha",0%
same,Percent Weed Control 27-30 DAA,[3]; [7],27%
same,Percent Weed Control 27-30 DAA,[3]; [8],38%
same,Percent Weed Control 27-30 DAA,"[3]; carrier 46-0-0, particle size 0.75 mm, 5.6 gai/Ha",47%
same,Percent Weed Control 27-30 DAA,[3]; [9],77%
same,Percent Weed Control 27-30 DAA,[3]; [10],97%
same,Percent Weed Control 27-30 DAA,"[3]; carrier 46-0-0, particle size 2.15 mm, 5.6 gai/Ha",8%
same,Percent Weed Control 27-30 DAA,[3]; [11],15%
same,Percent Weed Control 27-30 DAA,[3]; [12],50%
same,Percent Weed Control 26-27 DAA,[4]; [5],56%
same,Percent Weed Control 26-27 DAA,[4]; [6],70%
same,Percent Weed Control 26-27 DAA,[4]; [7],49%
same,Percent Weed Control 26-27 DAA,[4]; [8],42%
same,Percent Weed Control 26-27 DAA,[4]; [9],44%
same,Percent Weed Control 26-27 DAA,[4]; [10],87%
same,Percent Weed Control 26-27 DAA,[4]; [11],38%
same,Percent Weed Control 26-27 DAA,[4]; [12],75%
same,Pre-emergent Percent Mean Control,redstem filaree (EROCI); 8.8 gai/Ha,79%
same,Pre-emergent Percent Mean Control,redstem filaree (EROCI); 17.5 gai/Ha,97%
same,Pre-emergent Percent Mean Control,redstem filaree (EROCI); 35 gai/Ha,100%
same,Pre-emergent Percent Mean Control,redstem filaree (EROCI); 70 gai/Ha,100%
same,Pre-emergent Percent Mean Control,common purslane (POROL); 8.8 gai/Ha,96%
same,Pre-emergent Percent Mean Control,common purslane (POROL); 17.5 gai/Ha,97%
same,Pre-emergent Percent Mean Control,common purslane (POROL); 35 gai/Ha,99%
same,Pre-emergent Percent Mean Control,common purslane (POROL); 70 gai/Ha,100%
same,Pre-emergent Percent Mean Control,barnyardgrass (ECHCG); 8.8 gai/Ha,87%
same,Pre-emergent Percent Mean Control,barnyardgrass (ECHCG); 17.5 gai/Ha,96%
same,Pre-emergent Percent Mean Control,barnyardgrass (ECHCG); 35 gai/Ha,98%
same,Pre-emergent Percent Mean Control,barnyardgrass (ECHCG); 70 gai/Ha,100%
